Drawing on PubChem BioAssay (NCI), this text covers TGI and GI50 for 21 compounds.

Some test systems named below: M19-MEL melanoma; NCI-H522 lung; DU-145 prostate; A498 renal; SK-MEL-28 melanoma; HOP-62 NSCLC; UO-31 renal; SNB-78 CNS; SR leukemia; MOLT-4 leukemia.
What all share (assay): NCI tumour cell line growth inhibition, 48 h

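Each compound was tested at five concentrations against cells in 96-well plates for 48 hours. GI50 = concentration required for 50% inhibition of growth. TGI: total growth inhibition.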 Bounds are passed on as bounds.

On to `CC(C)C1=Cc2ccc3c(c2C(=O)C1=O)CCCC3`, for which the TGI turned out to be 8.59 µM in the assay on M19-MEL melanoma; 18.1 µM with NCI-H522 lung; 32 µM with DU-145 prostate; 18.5 µM in the assay on A498 renal; 15.8 µM with SK-MEL-28 melanoma; 42.1 µM in the assay with HOP-62 NSCLC. The TGI in the assay on UO-31 renal was 6.74 µM; in the assay with SNB-78 CNS it was 11.9 µM; with SR leukemia it was 2.77 µM.

Take `C=CCCn1nc(-c2ccccc2)oc1=O`: the TGI in the assay on M19-MEL melanoma, in the assay with NCI-H522 lung, in the assay on A498 renal, with MOLT-4 leukemia, in the assay on SK-MEL-28 melanoma and in the assay with HOP-62 NSCLC was greater than 100 µM in each case. In addition, the TGI in the assay with UO-31 renal, with SNB-78 CNS and with SR leukemia was greater than 100 µM each time.

Take `CN(C)CC1(C)CC/C(=C\c2ccc(Cl)cc2)C1=O` (stereo not drawn): the TGI in the assay with M19-MEL melanoma is greater than 100 µM; with NCI-H522 lung it was 33.1 µM; in the assay with A498 renal, greater than 100 µM; in the assay with MOLT-4 leukemia, 55.8 µM; with SK-MEL-28 melanoma, greater than 100 µM; in the assay on HOP-62 NSCLC, greater than 100 µM. Moreover, the TGI in the assay with UO-31 renal and in the assay on SNB-78 CNS was greater than 100 µM in each case.

For `COc1cccc(/C=C2\CCC(CN(C)C)C2=O)c1` (stereo not drawn), the TGI with M19-MEL melanoma was found to be 21.5 µM; in the assay on NCI-H522 lung it was 6.15 µM; in the assay with DU-145 prostate it was 9.29 µM; in the assay on A498 renal, 31.5 µM; in the assay on MOLT-4 leukemia, 5.19 µM; in the assay with SK-MEL-28 melanoma it was 8.52 µM. Further, the TGI in the assay on HOP-62 NSCLC was found to be 21 µM; in the assay on UO-31 renal it was 20.1 µM; in the assay on SNB-78 CNS, 66.5 µM; with SR leukemia, 8.43 µM.

Turning to `C[C@@H]1CC[C@@]2(C)OC(c3ccccc3)[C@H](CO)N2C1=O` (stereo partly drawn), the TGI with M19-MEL melanoma, in the assay with A498 renal, with SK-MEL-28 melanoma, in the assay with HOP-62 NSCLC, in the assay on SNB-78 CNS and with SR leukemia was greater than 100 µM each time.

`C=CC12CCCCC1CC(C(=O)OC)=C(O)C2` (stereo not drawn): the TGI in the assay with M19-MEL melanoma, in the assay with NCI-H522 lung, in the assay on MOLT-4 leukemia, in the assay on SK-MEL-28 melanoma, in the assay on HOP-62 NSCLC and with UO-31 renal was greater than 100 µM throughout. Moreover, the TGI in the assay with SNB-78 CNS and in the assay on SR leukemia was greater than 100 µM throughout.

In the case of `CC1OC(n2cc(F)c(=O)[nH]c2=O)CCC1=O` (stereo not drawn), the TGI in the assay on M19-MEL melanoma, in the assay with NCI-H522 lung, in the assay on A498 renal, in the assay on MOLT-4 leukemia, with HOP-62 NSCLC and with UO-31 renal was greater than 100 µM in each case. Also, the TGI with SNB-78 CNS and with SR leukemia was greater than 100 µM in each case.

`C=C(C)CC(C(=O)O)c1ccc(C)cc1` (stereo not drawn): the TGI in the assay on M19-MEL melanoma, with A498 renal, with SK-MEL-28 melanoma, with HOP-62 NSCLC, with SNB-78 CNS and in the assay on SR leukemia was greater than 100 µM throughout.

Regarding `O=CCCn1[nH]c(=O)ccc1=O`, the TGI with M19-MEL melanoma, in the assay with A498 renal, in the assay with MOLT-4 leukemia, in the assay on SK-MEL-28 melanoma, with UO-31 renal and in the assay on SNB-78 CNS was greater than 100 µM each time. Besides, the TGI in the assay on SR leukemia is greater than 100 µM.

On to `O=CN/C=C/c1ccccc1`, for which the TGI in the assay on M19-MEL melanoma, in the assay with NCI-H522 lung, in the assay on DU-145 prostate, with A498 renal, in the assay with MOLT-4 leukemia and with SK-MEL-28 melanoma was greater than 100 µM in each case. Besides, the TGI in the assay with HOP-62 NSCLC, in the assay with UO-31 renal, in the assay with SNB-78 CNS and in the assay with SR leukemia was greater than 100 µM throughout.

`C[C@]12Cc3conc3C(O)=C1CC[C@@H]1C2CC[C@@]2(C)C1CC[C@@H]2O` (stereo partly drawn): the TGI with M19-MEL melanoma was 74.5 µM; in the assay on NCI-H522 lung, 13.5 µM; in the assay on A498 renal it was 57.7 µM; with MOLT-4 leukemia, 37.7 µM; in the assay on SK-MEL-28 melanoma, greater than 100 µM; with HOP-62 NSCLC it was greater than 100 µM. Further, the TGI is 53.3 µM with UO-31 renal and greater than 100 µM in the assay on SNB-78 CNS.

`CCCCCCCCCCCCCCCCc1c(C(=O)OC)nc(NC#N)[nH]c1=O`: the TGI in the assay on M19-MEL melanoma, with NCI-H522 lung, with A498 renal, with MOLT-4 leukemia, in the assay on SK-MEL-28 melanoma and with HOP-62 NSCLC was greater than 25 µM throughout. Further, the TGI in the assay with UO-31 renal and in the assay with SNB-78 CNS was greater than 25 µM in each case.

For the compound `COC(=O)/C=C1\CCC2[C@@H](C(=O)CC3[C@]2(C)CCC[C@@]3(C)C(=O)OC)C1C` (stereo partly drawn), the TGI in the assay on M19-MEL melanoma was 39.7 µM; in the assay on NCI-H522 lung, 36 µM; in the assay on A498 renal, 99.7 µM; in the assay with MOLT-4 leukemia, 25.9 µM; in the assay on SK-MEL-28 melanoma it was 31.8 µM; with HOP-62 NSCLC, 69.7 µM. The TGI in the assay with UO-31 renal is 44.4 µM; with SNB-78 CNS it was greater than 100 µM.

As to `CCOC(=O)C1CC(=O)C=C2CCCCC21` (stereo not drawn), the TGI in the assay on M19-MEL melanoma, with NCI-H522 lung, in the assay on A498 renal, in the assay on MOLT-4 leukemia, in the assay on SK-MEL-28 melanoma and in the assay on HOP-62 NSCLC was greater than 100 µM in each case. Moreover, the TGI in the assay on UO-31 renal and in the assay with SNB-78 CNS was greater than 100 µM each time.

As for `CCOC(=O)NC(=O)c1cn(CCSCCOC(=O)NCCCCCCNC(=O)OCCSCCn2cc(C(=O)NC(=O)OCC)c(=O)n(C)c2=O)c(=O)n(C)c1=O`, the TGI was 51.3 µM in the assay with M19-MEL melanoma; greater than 100 µM in the assay on MOLT-4 leukemia; greater than 100 µM in the assay on SK-MEL-28 melanoma; greater than 100 µM in the assay with HOP-62 NSCLC; greater than 100 µM in the assay with UO-31 renal; greater than 100 µM in the assay on SNB-78 CNS. The compound also came in with a TGI in the assay on SR leukemia greater than 100 µM.

Consider `Cn1cnc([N+](=O)[O-])c1Sc1n[nH]c(-c2ccc(Cl)cc2)n1`, for which the TGI in the assay on M19-MEL melanoma stood at 47.7 µM; in the assay with NCI-H522 lung, 24.9 µM; in the assay on A498 renal, 56.1 µM; in the assay on MOLT-4 leukemia, 38.1 µM; with SK-MEL-28 melanoma, 30.3 µM; with HOP-62 NSCLC it was 54.9 µM. In addition, the TGI in the assay with UO-31 renal was 60.5 µM; in the assay with SNB-78 CNS, 70.7 µM; in the assay on SR leukemia, 42 µM.

Regarding `N#CC(Sc1ccccc1)C(N)=O` (stereo not drawn), the TGI in the assay with M19-MEL melanoma, with NCI-H522 lung, in the assay with A498 renal, in the assay with MOLT-4 leukemia, in the assay with HOP-62 NSCLC and with UO-31 renal was greater than 100 µM in each case. Besides, the TGI in the assay on SNB-78 CNS and with SR leukemia was greater than 100 µM in each case.

For the compound `O=S1Nc2cccc(C(F)(F)F)c2S1` (stereo not drawn), the TGI in the assay on M19-MEL melanoma was greater than 100 µM; in the assay on NCI-H522 lung, greater than 100 µM; in the assay with A498 renal, 97.3 µM; with MOLT-4 leukemia it was 55.4 µM; with SK-MEL-28 melanoma, greater than 100 µM; in the assay on HOP-62 NSCLC it was greater than 100 µM. Moreover, the TGI in the assay on UO-31 renal, with SNB-78 CNS and in the assay with SR leukemia was greater than 100 µM throughout.

For `c1cc[c]([Ge]([O]c2cccc3cccnc23)([c]2ccccc2)[c]2ccccc2)cc1`, the GI50 is 3.46 µM with M19-MEL melanoma; 1.9 µM with NCI-H522 lung; 13 µM in the assay with A498 renal; 3.56 µM in the assay with SK-MEL-28 melanoma; 12.7 µM in the assay on HOP-62 NSCLC; 11.5 µM in the assay on UO-31 renal. In addition, in the assay with SNB-78 CNS, the GI50 is 4.34 µM. Also, the TGI in the assay with M19-MEL melanoma stood at 12.1 µM; with NCI-H522 lung it was 3.74 µM; in the assay with A498 renal it was 25.7 µM; with SK-MEL-28 melanoma, 14.3 µM; in the assay on HOP-62 NSCLC it was 25.6 µM; with UO-31 renal, 23.7 µM. The same compound displayed a TGI in the assay with SNB-78 CNS of 17.7 µM.

On to `O=C(O)c1cnc2c(ccc3[nH]cccc32)c1=O`, for which the TGI with M19-MEL melanoma, in the assay with NCI-H522 lung, with A498 renal, in the assay with MOLT-4 leukemia, with SK-MEL-28 melanoma and in the assay with HOP-62 NSCLC was greater than 100 µM throughout. For the same compound, the TGI with UO-31 renal, in the assay with SNB-78 CNS and in the assay on SR leukemia was greater than 100 µM each time.

`COc1ccc2cc3c4cc(OC)c(OC)cc4ccn3c2c1`: the TGI in the assay with M19-MEL melanoma, in the assay with NCI-H522 lung, in the assay with A498 renal, with MOLT-4 leukemia, in the assay on SK-MEL-28 melanoma and in the assay on HOP-62 NSCLC was greater than 100 µM in each case. Further, the TGI in the assay with UO-31 renal, in the assay with SNB-78 CNS and in the assay with SR leukemia was greater than 100 µM each time.
